{"source": "patent US12018280B2", "about": "“Method for freezing aggregates of pluripotent stem cell-derived cardiomyocytes” (KYOTO UNIVERSITY, priority 2016, dated 2024)", "key": {"[1]": {"system": "aggregate of GCaMP-cardiomyocytes derived from human iPS cells", "experiment": "GCaMP fluorescence wave (intracellular calcium) drug response of cardiomyocyte aggregates after freeze-thaw", "assay_type": "cell-based", "conditions": "for change of TtP, CAD50, CAD70 and CAD90: 300 nM E4031, 1 μM astemizole, 1 μM nifekalant, 10 μM chromanole 293b, 30 μM mexiletine, 50 nM nifedipine; for change of PtP (beat interval): 300 nM isoproterenol, 1 μM propranol", "from_the_text": "A gene encoding GCaMP3, which is a calcium sensitive GFP that emits GFP fluorescence when bound to intracellular calcium, was introduced into a human iPS cell line (253G1) or a monkey iPS cell line (HT4M2) by AAVS1 region-specific gene transfer mediated by CRISPR. From the human GCaMP3-iPS cells, cardiomyocytes were induced in the same manner as in Section 1 to prepare an aggregate of cardiomyocytes that emitted GFP fluorescence in response to the change in intracellular calcium concentration during the beating. Also, from the monkey GCaMP-iPS cells, cardiomyocytes were induced using cytokines as described previously (Nat Biotechnol. 2007 September; 25(9): 1015-24. Epub 2007 Aug. 26) to prepare an aggregate of cardiomyocytes that emitted GFP fluorescence in response to the change in intracellular calcium concentration. Specifically, the monkey GCaMP-iPS cells were cultured for 24 hours with RPMI-B27 medium (Invitrogen) supplemented with human recombinant activin A (R&D Systems) (100 ng/ml), and then for four days with RPMI-B27 medium supplemented with human recombinant BMP4 (R&D Systems) (10 ng/ml). After the medium was replaced with RPMI-B27 medium without these cytokines, the cells were cultured for 21 days. The GCaMP-cardiomyocytes were dispersed into single cells with a trypsin/collagenase solution, and seeded on Sumilon PrimeSurface 96-well V-bottom plates at 1×10^5 cells/well to form uniform aggregates (700 to 1000 μm in diameter). The aggregates were used to analyze the change in intracellular calcium concentration wave, which synchronized the beating of cardiomyocytes.\nderived from human iPS cells seven days after thawing to compare parameters of GCaMP fluorescence wave (change in intracellular calcium ion concentration) before and 10 minutes after the E4031 addition. Analyzed were time from the rise to the peak of fluorescence wave (TtP), and time from the rise to the peak of fluorescence wave and then to the decrease to 50% of the peak value (CaD50), to 70% of the peak value (CaD70), or to 90% of the peak value (CaD90) (FIG. 5-A).\nE4031 was added to an aggregate of GCaMP-cardiomyocytes derived from human iPS cells seven days after thawing at 0, 0.3, 3, 30, or 300 nM to analyze the rate of change with E4031."}, "[2]": {"system": "cardiomyocytes induced from pluripotent stem cells", "conditions": "cardiomyocytes induced by the method described in WO 2015/182765; cited from earlier work"}, "[3]": {"system": "aggregate of GCaMP-cardiomyocytes derived from human iPS cells", "experiment": "Cardiotoxicity of anthracycline in cardiomyocyte aggregates after freeze-thaw (GCaMP fluorescence)", "assay_type": "cell-based", "procedure": "To detect cardiotoxicity of anthracycline anticancer agents, doxorubicin (10 μM) or daunorubicin (20 μM), was added for 24 hours to an aggregate of GCaMP-cardiomyocytes derived from human iPS cells seven days after thawing. The intracellular calcium wave was plotted with GCaMP fluorescence for an aggregate of cardiomyocytes without any agent (control) (FIGS. 8-A, 8-B), three days after the addition of doxorubicin (FIG. 8-C), or three days after the addition of daunorubicin (FIG. 8-D).\nThe change in parameters of GCaMP fluorescence wave was analyzed with the addition of doxorubicin (10 μM) or daunorubicin (20 μM) (FIGS. 9-A, 9-B)."}, "[4]": {"conditions": "50 μM ryanodine, seven days after thawing"}, "[5]": {"conditions": "doxorubicin 10 μM or daunorubicin 20 μM"}}, "data": [{"molecule": "Cn1c(NCCN(CCO)CCCc2ccc([N+](=O)[O-])cc2)cc(=O)n(C)c1=O", "note": "[nifekalant]", "values": [{"measurement": "change of TtP, CAD50, CAD70 and CAD90", "setting": "[1]; seven days after thawing", "value": "extended"}]}, {"molecule": "COc1ccc(CCN2CCC(Nc3nc4ccccc4n3Cc3ccc(F)cc3)CC2)cc1", "note": "[astemizole]", "values": [{"measurement": "change of TtP, CAD50, CAD70 and CAD90", "setting": "[1]; seven days after thawing", "value": "extended"}]}, {"molecule": "CC(C)NCC(O)c1ccc(O)c(O)c1", "note": "(centres unmarked) [isoproterenol]", "values": [{"measurement": "change of PtP (beat interval)", "setting": "[1]; [4]", "value": "decreased PtP"}]}, {"molecule": "Cc1cccc(C)c1OCC(C)N", "note": "(centres unmarked) [mexiletine]", "values": [{"measurement": "change of TtP, CAD50, CAD70 and CAD90", "setting": "[1]; seven days after thawing", "value": "extended"}]}, {"molecule": "ryanodine", "values": [{"measurement": "change of PtP (beat interval)", "setting": "[1]; [4]", "value": "increased PtP"}, {"measurement": "peak value of GCaMP fluorescence (PeakValue, intracellular calcium increase)", "setting": "[1]; [4]", "value": "decreased"}]}, {"molecule": "Cc1cccc(CCN2CCC(C(=O)c3ccc(NS(C)(=O)=O)cc3)CC2)n1", "note": "[E4031]", "values": [{"measurement": "change of TtP, CAD50, CAD70 and CAD90", "setting": "[1]; seven days after thawing", "value": "extended"}, {"measurement": "extension of all GCaMP fluorescence wave parameters (TtP, CaD50, CaD70, CaD90)", "setting": "[1]; 300 nM, 10 minutes after addition vs before, aggregate seven days after thawing", "value": "around 40%"}, {"measurement": "concentration at or above which TtP, CAD50, CAD70 and CAD90 were extended in a concentration-dependent manner", "setting": "[1]; tested at 0, 0.3, 3, 30, 300 nM, seven days after thawing", "value": "≥ 3", "unit": "nM"}, {"measurement": "effect on action potential", "setting": "[2]", "value": "prolongation of action potential"}]}, {"molecule": "CC(C)NCC(O)COc1cccc2ccccc12", "note": "(centres unmarked) [propranol]", "values": [{"measurement": "change of PtP (beat interval)", "setting": "[1]; [4]", "value": "increased PtP"}]}, {"molecule": "COc1cccc2c1C(=O)c1c(O)c3c(c(O)c1C2=O)C[C@@](O)(C(C)=O)C[C@@H]3O[C@H]1C[C@H](N)[C@H](O)[C@H](C)O1", "note": "[daunorubicin]", "values": [{"measurement": "amplitude of GCaMP fluorescence wave", "setting": "[3]; [5]", "value": "tended to decrease significantly"}, {"measurement": "change of PtP", "setting": "[3]; [5]", "value": "significantly decreased"}, {"measurement": "change of TtP and CAD", "setting": "[3]; [5]", "value": "not significantly changed"}, {"measurement": "intracellular calcium wave findings (cardiotoxicity)", "setting": "[3]; doxorubicin 10 μM or daunorubicin 20 μM added for 24 hours, three days after the addition", "value": "short PtP, tachycardia, variable heartbeat interval, and arrhythmia"}]}, {"molecule": "CCS(=O)(=O)N(C)[C@H]1c2cc(C#N)ccc2OC(C)(C)[C@@H]1O", "note": "[chromanole 293b]", "values": [{"measurement": "change of TtP, CAD50, CAD70 and CAD90", "setting": "[1]; seven days after thawing", "value": "extended"}, {"measurement": "effect on action potential", "setting": "[2]", "value": "prolongation of action potential"}]}]}
